# Experimental data from patent US8247377B2, “Non-steroidal glucocorticoid inhibitors and their use in treating inflammation, allergy and auto-immune conditions” (Glaxo Group Limited, priority 2006, dated 2012).
# Legend:
# MMTV promoter = assay: MMTV agonist assay in A549 MMTV cells; type: cell-based; settings: Homo sapiens, A549, 6 h, >85% = full agonist, >20% and <85% = partial or efficacy selective agonist, read-out: average maximum asymptote in the MMTV agonist assay
# Description: (§1) Human lung carcinoma A549 cell line (ECACC No. 86012804) has been stably transfected in house with a plasmid containing a renilla luciferase reporter with an MMTV promoter. Stimulation of the cell line with GR agonists results in intracellular signal transduction and ultimately translocation of GR into the nucleus. This activates the inserted DNA sequence resulting in transcription of the integrated luciferase gene, which is quantified using a light emission. The stably transfected cell line was grown as a monolayer in DMEM supplemented with FCS-HI (10%), Non-essential amino acids (1%), L-Glutamine (2 mM), Pen/Strep (1%) and Geneticin (50 mg/ml).
# A 90% confluent T175 flask of A549 MMTV cells was harvested by centrifugation for 5 min at 200 g, resuspended in assay buffer (DMEM supplemented with 10% FCS 2×HI, 2 mM Glutamax, Non essential amino acids and 25 mM HEPES) and diluted to 0.1×10^6/ml. 70 μl of cell solution was dispensed to each well of white Nunc 384-well plates, containing compound at the required concentration. Plates were incubated for 6 h at 37° C., 95% humidity, 5% CO2. Plates were equilibrated to room temperature for 1 h prior to the addition of 10 μl of Renilla substrate to each well of assay plates. The plates were covered to protect the reagents from light, and then incubated at room temperature for approximately 15 mins before reading them on a Viewlux. Dose response curves were constructed from which pEC50 and maximum asymptote values were estimated.
# glucocorticoid receptor = biological target: T1, glucocorticoid receptor (Homo sapiens, UniProt P04150); assay: Glucocorticoid receptor binding assay (fluorescence polarisation); settings: competition with Alexa 555 fluorescently-labelled dexamethasone derivative, full length glucocorticoid receptor; read-out: glucocorticoid binding pIC50 (converted)
# T1 construct: a partially purified full length glucocorticoid receptor
# T1 sequence (P04150 1-777): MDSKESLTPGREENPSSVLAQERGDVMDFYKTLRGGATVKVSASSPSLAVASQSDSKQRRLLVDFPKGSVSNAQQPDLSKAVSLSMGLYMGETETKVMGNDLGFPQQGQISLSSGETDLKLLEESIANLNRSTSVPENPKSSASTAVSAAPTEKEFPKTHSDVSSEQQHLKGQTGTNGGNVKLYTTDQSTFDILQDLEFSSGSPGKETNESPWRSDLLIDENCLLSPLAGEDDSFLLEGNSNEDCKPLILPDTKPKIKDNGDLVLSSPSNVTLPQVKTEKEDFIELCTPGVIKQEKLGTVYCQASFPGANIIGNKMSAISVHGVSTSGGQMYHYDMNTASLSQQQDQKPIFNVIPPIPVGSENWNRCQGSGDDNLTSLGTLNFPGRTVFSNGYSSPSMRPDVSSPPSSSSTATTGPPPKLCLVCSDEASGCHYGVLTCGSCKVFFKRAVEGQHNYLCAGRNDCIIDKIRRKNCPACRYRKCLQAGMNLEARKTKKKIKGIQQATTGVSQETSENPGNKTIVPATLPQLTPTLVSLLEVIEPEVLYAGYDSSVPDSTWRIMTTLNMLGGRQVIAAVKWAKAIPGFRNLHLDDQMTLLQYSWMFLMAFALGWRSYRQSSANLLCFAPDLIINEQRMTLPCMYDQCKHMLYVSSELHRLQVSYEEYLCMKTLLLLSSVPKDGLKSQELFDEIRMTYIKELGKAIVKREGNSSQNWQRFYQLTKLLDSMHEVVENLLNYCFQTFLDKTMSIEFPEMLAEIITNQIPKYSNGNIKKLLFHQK
# Method: Compounds were solvated and diluted in DMSO, and transferred directly into assay plates. Fluorescent dexamethasone and a partially purified full length glucocorticoid receptor were added to the plates, together with buffer components to stabilise the GR protein and incubated at room temperature for 2 hrs in the dark. Binding of each compound was assessed by analysing the displacement of fluorescent ligand by measuring the decrease in fluorescence polarisation signal from the mixture. Dose response curves were constructed from which pIC50 values were estimated.
# NFκB = NFκB agonist assay in A549 SPAP cells; type: cell-based; settings: Homo sapiens; for IC50: A549 SPAP cells, TNFα 3.2 ng/ml, read-out: pIC50 for the NFkB assay (converted);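 on average maximum asymptote in the NFkB assay: maximum inhibition of the TNFα-induced NFκB-driven signal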
# Description: as §1, with “containing an ELAM promoter sequence that has” for “containing”, “NFκB response element within it.” for “renilla luciferase reporter with an MMTV promoter.”, “TNFα” for “GR agonists”, “NFκB” for “GR”, “SPAP” for “luciferase”, “colorimetric assay. […]” for “light emission.”
# A 70% confluent T225 flask of A549 SPAP cells was harvested by centrifugation for 5 min at 200 g, resuspended in assay buffer (DMEM supplemented with 10% FCS 2×HI, 2 mM L-Glutamine, 1% Pen/Strep and Non essential amino acids) and diluted to 0.16×10^6/ml. 60 μl of cell solution was dispensed to each well of clear Nunc 384-well plates, containing compound at the required concentration. Plates were incubated for 1 h at 37° C., 95% humidity, 5% CO2 before 10 μl of TNFα was added at final concentration of 3.2 ng/ml and then returned to the cell incubator for 15 h. Plates were equilibrated to room temperature for 1 h prior to the addition of 25 μl of pNPP buffer (1M Diethanolamine pH 9.8, 0.5 mM MgCl2, 0.28M NaCl, 2 mg/ml pNPP) to each well of assay plates. The plates were covered to protect the reagents from light, and then incubated at room temperature for approximately 1 hour before reading them on an Ascent using a 405 nm single filter. Dose response curves were constructed from which pIC50 values were estimated.
# progesterone receptor = biological target: T2, progesterone receptor (Homo sapiens, UniProt P06401); assay: Assay for progesterone receptor activity (CV-1 cells, PRb-BacMam/MMTV-BacMam); type: cell-based; settings: CV-1 cells transduced with PRb-BacMam and MMTV-BacMam; read-out: pEC50 progesterone receptor activity (converted)
# T2 construct: expressed in transfected cells; host or cells: CV-1 cells transduced with PRb-BacMam and MMTV-BacMam
# T2 sequence (P06401 1-933): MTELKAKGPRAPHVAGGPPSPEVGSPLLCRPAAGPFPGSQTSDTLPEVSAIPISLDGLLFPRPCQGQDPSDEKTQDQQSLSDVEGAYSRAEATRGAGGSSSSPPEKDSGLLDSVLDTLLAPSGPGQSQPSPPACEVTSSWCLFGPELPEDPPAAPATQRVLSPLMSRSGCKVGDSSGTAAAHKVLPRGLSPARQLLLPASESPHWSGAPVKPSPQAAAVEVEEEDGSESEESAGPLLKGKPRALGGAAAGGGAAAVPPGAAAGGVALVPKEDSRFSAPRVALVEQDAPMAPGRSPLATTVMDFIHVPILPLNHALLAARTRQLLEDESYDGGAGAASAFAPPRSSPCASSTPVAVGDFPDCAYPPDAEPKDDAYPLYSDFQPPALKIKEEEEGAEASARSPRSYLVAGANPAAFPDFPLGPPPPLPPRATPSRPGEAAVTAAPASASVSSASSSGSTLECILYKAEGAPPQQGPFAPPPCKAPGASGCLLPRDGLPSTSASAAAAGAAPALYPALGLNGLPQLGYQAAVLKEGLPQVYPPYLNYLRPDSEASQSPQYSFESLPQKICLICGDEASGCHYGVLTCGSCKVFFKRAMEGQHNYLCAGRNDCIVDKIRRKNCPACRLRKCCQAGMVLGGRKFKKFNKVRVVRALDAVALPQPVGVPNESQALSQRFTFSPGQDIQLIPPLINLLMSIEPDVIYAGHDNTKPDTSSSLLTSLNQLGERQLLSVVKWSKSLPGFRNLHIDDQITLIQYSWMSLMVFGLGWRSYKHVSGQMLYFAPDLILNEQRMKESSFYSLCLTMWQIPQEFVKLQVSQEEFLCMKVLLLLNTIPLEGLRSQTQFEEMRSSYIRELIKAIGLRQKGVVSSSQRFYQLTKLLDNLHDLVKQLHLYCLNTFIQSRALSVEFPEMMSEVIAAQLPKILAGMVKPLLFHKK
# Method: A T225 flask of CV-1 cells at a density of 80% confluency was washed with PBS, detached from the flask using 0.25% trypsin and counted using a Sysmex KX-21N. Cells were diluted in DMEM containing 10% Hyclone, 2 mM L-Glutamate and 1% Pen/Strep at 140 cells/μl and transduced with 10% PRb-BacMam and 10% MMTV-BacMam. […] of suspension cells were dispensed to each well of white Nunc 384-well plates, containing compounds at the required concentration. After 24 h 10 μl of Steadylite were added to each well of the plates. Plates were incubated in the dark for 10 min before reading them on a Viewlux reader. Dose response curves were constructed from which pEC50 values were estimated.
# [1] = Assay for brain penetrance; type: in vivo; settings: brain and plasma, rat, single intravenous dose 1 mg/kg, read-out: brain to plasma ratio
# Method: Each rat received a single intravenous dose at a level of 1 mg/kg. The dose was formulated in 10% DMSO/50% PEG200/40% sterile water. Terminal blood samples were taken at 5 or 15 minutes after dosing, by cardiac puncture following anaesthesia with isofluorane. The brains were removed at the same time point.
# The compounds were extracted from 20 μL plasma by protein precipitation using 120 μL acetonitrile containing an analogue compound as an internal standard. The filtered extracts were collected into a 96 well plate and were diluted with an equal volume of 10% acetonitrile containing 0.1% formic acid in water (v/v). The plate was then mixed on a plate shaker for at least 5 minutes before analysis by LC-MS/MS against a calibration line prepared in control plasma.
# Each brain was weighed, then homogenised in 3 ml acetonitrile:water (10:90 v/v). The compounds were extracted from 200 μL of the resulting homogenate by protein precipitation using 600 μL acetonitrile containing an analogue compound as an internal standard. The extracts were centrifuged and 150 μl of each was filtered and transferred to a 96 well plate. The aliquot was diluted with 10% acetonitrile containing 0.1% formic acid in water (v/v). The plate was mixed on a plate shaker for at least 5 minutes before analysis by LC-MS/MS against a calibration line prepared in control brain homogenate.
SMILES,Emax (MMTV promoter),IC50 (glucocorticoid receptor),"Emax (NFκB; A549, A549 SPAP cells, >85% = full agonist, ≧20% = partial or full agonist, read-out: average maximum asymptote in the NFkB assay)",EC50 (progesterone receptor),Kp at 5 min [1],IC50 (NFκB)
"Nc1c(C(=O)NCC(O)(CNC(=O)c2c(C(F)(F)F)cccc2C(F)(F)F)C(F)(F)F)cnn1-c1ccc(F)cc1 (single isomer, unassigned) [Example 15 Enantiomer 1, 5-amino-N-{2-[({[2,6-bis(trifluoromethyl)phenyl]carbonyl}amino)methyl]-3,3,3-trifluoro-2-hydroxypropyl}-1-(4-fluorophenyl)-1H-pyrazole-4-carboxamide]",20 to 85%,≤ 0.316 µM,≥ 20%,> 1 µM,–,–
"CCN(CC(O)(CNC(=O)c1cnn(-c2ccc(F)cc2)c1N)C(F)(F)F)C(=O)c1c(F)cccc1F (single isomer, unassigned) [Example 5 Enantiomer 1, 5-Amino-N-(2-{[[(2,6-difluorophenyl)carbonyl](ethyl)amino]methyl}-3,3,3-trifluoro-2-hydroxypropyl)-1-(4-fluorophenyl)-1H-pyrazole-4-carboxamide]",–,≤ 0.316 µM,–,> 1 µM,≥ 0.1,< 1 µM
"CN(CC(O)(CNC(=O)c1cnn(-c2ccc(F)cc2)c1N)C(F)(F)F)C(=O)c1c(Cl)cccc1Cl (single isomer, unassigned) [Example 1 Enantiomer 1, 5-Amino-N-(2-{[[(2,6-dichlorophenyl)carbonyl](methyl)amino]methyl}-3,3,3-trifluoro-2-hydroxypropyl)-1-(4-fluorophenyl)-1H-pyrazole-4-carboxamide]",–,≤ 0.316 µM,–,> 1 µM,≥ 0.1,< 1 µM
